Assay results: US12427192B2, “Water soluble adjuvant and composition containing same” (Sumitomo Pharma Co., Ltd., priority 2019, dated 2025)

What was measured:
mouse TLR7 = molecular target: T1, mouse TLR7 (Mus musculus, UniProt P58681); assay: Mouse TLR7 reporter gene assay (HEK-Blue mTLR7 cell line), Test 2; type: cell-based; conditions: half of maximal SEAP induction, 20-24-hour incubation, 0.1% DMSO
T1 construct: expresses full-length mouse TLR7 and secretory SEAP reporter gene; host or cells: HEK-Blue mTLR7 (HEK293-derived)
T1 sequence (P58681 27-1050): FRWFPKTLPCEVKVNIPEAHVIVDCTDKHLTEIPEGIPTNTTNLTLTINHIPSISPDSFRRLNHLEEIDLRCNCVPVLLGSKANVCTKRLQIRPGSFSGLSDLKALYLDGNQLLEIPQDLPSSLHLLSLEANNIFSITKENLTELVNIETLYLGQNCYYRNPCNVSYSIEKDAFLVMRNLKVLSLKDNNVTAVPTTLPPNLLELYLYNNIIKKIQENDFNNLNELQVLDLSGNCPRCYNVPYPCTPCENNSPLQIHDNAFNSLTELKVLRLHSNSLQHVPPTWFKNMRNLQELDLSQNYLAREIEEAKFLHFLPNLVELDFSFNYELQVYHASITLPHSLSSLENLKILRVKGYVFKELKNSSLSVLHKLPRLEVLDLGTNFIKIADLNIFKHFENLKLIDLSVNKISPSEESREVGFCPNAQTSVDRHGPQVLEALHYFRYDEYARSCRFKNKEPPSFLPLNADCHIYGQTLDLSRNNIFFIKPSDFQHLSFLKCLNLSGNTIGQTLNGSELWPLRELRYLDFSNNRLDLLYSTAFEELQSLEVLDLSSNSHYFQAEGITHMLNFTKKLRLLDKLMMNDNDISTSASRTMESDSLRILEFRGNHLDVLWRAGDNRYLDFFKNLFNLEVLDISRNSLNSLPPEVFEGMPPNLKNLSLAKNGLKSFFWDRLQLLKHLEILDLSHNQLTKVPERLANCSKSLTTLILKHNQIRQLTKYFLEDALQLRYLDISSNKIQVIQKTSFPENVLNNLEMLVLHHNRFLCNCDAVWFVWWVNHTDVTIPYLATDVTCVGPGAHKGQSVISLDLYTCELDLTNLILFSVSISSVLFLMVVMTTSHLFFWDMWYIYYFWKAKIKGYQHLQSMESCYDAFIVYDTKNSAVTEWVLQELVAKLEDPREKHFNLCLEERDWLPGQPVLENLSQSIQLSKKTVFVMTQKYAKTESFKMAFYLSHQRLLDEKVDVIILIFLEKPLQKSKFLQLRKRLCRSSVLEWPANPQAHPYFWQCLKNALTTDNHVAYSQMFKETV
Source text: Test 2 Mouse TLR7 Reporter Gene Assay
HEK-Blue™ mTLR7 cell line (Invivogen) is a stably co-transfected cell line which expresses full-length mouse TLR7 and secretory SEAP reporter gene under the transcriptional regulation of an NF-κB response element. The TLR7 expression of the cell line has been already tested by RT-PCR. Transfectants with stable expression were selected using the antibiotic blasticidin and Zeocin. TLR signaling leads to the translocation of NF-κB and the activation of the promoter results in expression of the SEAP gene. TLR7-specific activation was assessed by determining the level of SEAP produced following 20-24-hour incubation of the cells at 37° C. with each compound prepared in Examples and Reference examples in the presence of 0.1% (v/v) DMSO. The mouse TLR7 activity for the present compound was assessed by mouse TLR7 reporter gene assay, and the results are shown in Tables 5 and 6 as the compound concentration which produced half of the maximal level of SEAP induction (EC50).

human TLR7 [1] = molecular target: T2, human TLR7 (Homo sapiens, UniProt Q9NYK1); assay: Human TLR7 reporter gene assay (TLR7/NF-κB/SEAPorter HEK293 cell line), Tests 1 and 21; type: cell-based
T2 construct: expresses full-length human TLR7 and secretory alkaline phosphatase (SEAP) reporter gene; host or cells: HEK293 (TLR7/NF-κB/SEAPorter)
T2 sequence (Q9NYK1 27-1049): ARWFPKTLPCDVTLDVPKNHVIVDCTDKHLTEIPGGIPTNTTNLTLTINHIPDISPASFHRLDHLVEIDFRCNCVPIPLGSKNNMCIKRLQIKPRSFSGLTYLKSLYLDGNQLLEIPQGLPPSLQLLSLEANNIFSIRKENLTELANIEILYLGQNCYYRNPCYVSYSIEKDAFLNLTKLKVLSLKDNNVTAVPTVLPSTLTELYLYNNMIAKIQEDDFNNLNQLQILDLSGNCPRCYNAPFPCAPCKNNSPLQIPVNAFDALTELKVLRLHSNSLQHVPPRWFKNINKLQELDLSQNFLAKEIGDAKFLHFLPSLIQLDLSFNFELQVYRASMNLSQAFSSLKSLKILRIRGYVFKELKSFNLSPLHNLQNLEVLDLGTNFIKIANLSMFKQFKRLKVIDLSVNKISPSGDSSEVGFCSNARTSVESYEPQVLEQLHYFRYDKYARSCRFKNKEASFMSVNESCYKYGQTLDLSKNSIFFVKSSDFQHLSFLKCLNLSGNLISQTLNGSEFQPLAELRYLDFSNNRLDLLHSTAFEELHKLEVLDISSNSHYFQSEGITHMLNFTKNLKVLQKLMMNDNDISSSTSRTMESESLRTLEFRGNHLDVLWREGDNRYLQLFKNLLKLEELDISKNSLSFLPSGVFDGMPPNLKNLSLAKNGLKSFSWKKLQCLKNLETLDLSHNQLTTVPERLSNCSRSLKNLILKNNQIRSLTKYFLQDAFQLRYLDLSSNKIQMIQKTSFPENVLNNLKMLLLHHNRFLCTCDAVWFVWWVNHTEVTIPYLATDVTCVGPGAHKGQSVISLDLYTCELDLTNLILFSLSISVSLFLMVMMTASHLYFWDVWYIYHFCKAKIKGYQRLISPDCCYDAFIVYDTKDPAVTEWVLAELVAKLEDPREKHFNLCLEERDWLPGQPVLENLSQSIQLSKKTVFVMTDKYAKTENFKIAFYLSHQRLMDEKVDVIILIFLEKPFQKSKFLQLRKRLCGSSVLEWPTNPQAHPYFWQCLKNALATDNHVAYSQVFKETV
Source text: Human TLR7 Reporter Gene Assay
(§1) TLR7/NF-κB/SEAPorter™ HEK293 cell line (Imgenex Corporation) is a stably co-transfected cell line which expresses full-length human TLR7 and secretory alkaline phosphatase (SEAP) reporter gene under the transcriptional regulation of an NF-κB response element. The TLR7 expression of the cell line has been already tested by flow cytometry. Transfectants with stable expression were selected using the antibiotic blasticidin and Geneticin. TLR signaling leads to the translocation of NF-κB and the activation of the promoter results in expression of the SEAP gene. TLR7-specific activation was assessed by determining the level of SEAP produced following 24-hour incubation of the cells at 37° C. with each compound prepared in Examples and Reference examples in the presence of 0.1% (v/v) dimethylsulfoxide (DMSO). The human TLR7 activity for the present compound was assessed by human TLR7 reporter gene assay, and the results are shown in Tables 3 and 4 as the compound concentration which produced half of the maximal level of SEAP induction (EC50)
According to the method of Test 1, human TLR7 reporter gene assay was done with the following samples, and the result was shown in the table below.

human TLR7 [2] = molecular target: T2, human TLR7; assay: Human TLR7 reporter gene assay (HEK-Blue hTLR7 cell line), Test 22; type: cell-based; conditions: method of Test 1
Source text: as §1
According to the method of Test 1, human TLR7 reporter gene assay was done with the following samples, and the result was shown in the table below. The cell used herein was HEK-Blue™ hTLR7 cell line (Invivogen). HEK-Blue™ hTLR7 cell line is a stably co-transfected cell line which expresses full-length human TLR7 and secretory SEAP reporter gene under the transcriptional regulation of an NF-κB response element. The TLR7 expression of the cell line has been already tested by RT-PCR. Transfectants with stable expression were selected using the antibiotic blasticidin and Zeocin.

[3] = system: HLA-A*02:01 transgenic mouse; assay: Test 9: in vivo adjuvant activity, cocktail vaccine b, IFNγ ELISPOT; conditions: added to cocktail vaccine b; Peptide SEQ ID No. 1 or SEQ ID No. 4; 0.4 nmol per body, twice; FIG. 6 and 7
Protocol: Evaluation of In Vivo Adjuvant Activity in HLA-A*02:01 Transgenic Mouse
The in vivo adjuvant activity of the compounds prepared in Examples 8, 9, and 10 and the compound prepared in Reference example 12 was evaluated in the following procedure. To cocktail vaccine b comprising Compound of formula 4 prepared in Reference example 8 and Peptide SEQ ID No. 3 prepared in Reference example 3 with Montanide ISA51 VG was added the compound prepared in Example 8, 9, or 10, or the compound prepared in Reference example 12 to prepare each vaccine. The vaccine was administered to a HLA-A*02:01 transgenic mouse, and the adjuvant activity of each vaccine was evaluated by the method of testing antigen-specific CTL induction.
Specifically, Compound of formula 4 and Peptide SEQ ID No. 3 were dissolved in DMSO, and then diluted with water for injection to concentrations of Compound of formula 4 of 3 mg/mL and Peptide SEQ ID No. 3 of 2.25 mg/mL. The diluted peptide solution was mixed and emulsified with an equal volume of Montanide ISA 51 VG to prepare cocktail vaccine b. Cocktail vaccine b was injected to mice intradermally at the tail base area in an amount for administering 300 μg of Compound of formula 4 per body and 225 μg of Peptide SEQ ID No. 3 per body. Or, in the step of preparing cocktail vaccine b, the compound prepared in Example 8, 9, or 10, or the compound prepared in Reference example 12 was added to the diluted peptide solution to prepare a vaccine, and the prepared vaccine was injected to mice intradermally at the tail base area in an amount for administering 300 μg of Compound of formula 4 per body, 225 μg of Peptide SEQ ID No. 3 per body, and 0.4 nmol of the compound prepared in Example 8, 9, or 10, or the compound prepared in Reference example 12 per body. The administrations were done twice, which had one week interval. One week after the final administration, the mice were sacrificed with CO2 gas. Splenocytes were harvested from spleens removed from the mice. Like Test 4, Peptide (SEQ ID No. 1 or SEQ ID No. 4) was added to the splenocyte-containing ELISPOT plate at a final concentration of 10 μg/ml, and the plate was incubated overnight at 37° C. under an atmosphere of 5% CO2 to re-stimulate the peptide in vitro. Then, after removal of the supernatant from the wells, stained spots on the ELISPOT plate were counted.

[4] = Test 1, TLR7/NF-κB/SEAPorter HEK293 cell line, half of maximal SEAP induction, 24-hour incubation, 0.1% DMSO, read-out: EC50
[5] = Test 21, according to the method of Test 1, read-out: human EC50

CCC[C@@H](CCO)Nc1nc(N)nc(C)c1Cc1ccc(CN(C)CCOCCOCCOCCOCCO)cc1OC [Example 2, 1-{4-[(2-amino-4-{[(3S)-1-hydroxyhexan-3-yl]amino}-6-methylpyrimidin-5-yl)methyl]-3-methoxyphenyl}-2-methyl-5,8,11,14-tetraoxa-2-azahexadecan-16-ol-trifluoroacetate]
EC50 (mouse TLR7): 0.021 µM | EC50 (human TLR7 [1]; [4]): 0.094 µM

CCCCCNc1nc(N)nc(C)c1Cc1cc(CN(C)CCOCCOCCOCCOCCO)ccc1OC [Example 3, 1-(3-{[2-amino-4-methyl-6-(pentylamino)pyrimidin-5-yl]methyl}-4-methoxyphenyl)-2-methyl-5,8,11,14-tetraoxa-2-azahexadecan-16-ol-trifluoroacetate]
EC50 (human TLR7 [1]; [5]): 0.637 µM

CCC[C@@H](CO)Nc1nc(N)nc(C)c1Cc1ccc(C(=O)NCCOCCOCCOCCOCCOCCOCCO)cc1OC [Example 5, 4-[(2-amino-4-{[(2S)-1-hydroxypentan-2-yl]amino}-6-methylpyrimidin-5-1)methyl]-N-(20-hydroxy-3,6,9,12,15,18-hexaoxaicosan-1-yl)-3-methoxybenzamide]
EC50 (human TLR7 [2]): 7.27 µM

CCCCCNc1nc(N)nc(C)c1Cc1ccc(CN(C)CCOCCOCCOCCOCCOCCOCCOCCOCCOCCO)cc1OC [Example 8, 1-(4-{[2-amino-4-methyl-6-(pentylamino)pyrimidin-5-yl]methyl}-3-methoxyphenyl)-2-methyl-5,8,11,14,17,20,23,26,29-nonaoxa-2-azahentriacontan-31-ol]
EC50 (human TLR7 [1]; [5]): 0.388 µM | CTL counts responsive to the peptide compared with Reference example 12 [3]: more | CTL counts responsive to the peptide compared with adding no compound [3]: more

CCCCCNc1nc(N)nc(C)c1Cc1ccc(CN(C)CCOCCOCCOCCOCCOCCOCCOCCOCCOCCOCCOCCOCCOCCOCCOCCOCCOCCOCCOCCOCCOCCOCCOCCO)cc1OC [Example 9, 1-(4-{[2-amino-4-methyl-6-(pentylamino)pyrimidin-5-yl]methyl}-3-methoxyphenyl)-2-methyl-5,8,11,14,17,20,23,26,29,32,35,38,41,44,47,50,53,56,59,62,65,68,71-tricosaoxa-2-azatriheptacontan-73-ol]
EC50 (human TLR7 [1]; [5]): 3.99 µM | CTL counts responsive to the peptide compared with Reference example 12 [3]: more | CTL counts responsive to the peptide compared with adding no compound [3]: more

CCCCCNc1nc(N)nc(C)c1Cc1ccc(CN(C)CCOCCOCCOCCOCCOCCOCCOCCOCCOCCOCCOCCOCCOCCOCCOCCOCCOCCOCCOCCOCCOCCOCCOCCOCCOCCOCCOCCOCCOCCOCCOCCOCCOCCOCCOCCO)cc1OC [Example 10, 1-(4-{[2-amino-4-methyl-6-(pentylamino)pyrimidin-5-yl]methyl}-3-methoxyphenyl)-2-methyl-5,8,11,14,17,20,23,26,29,32,35,38,41,44,47,50,53,56,59,62,65,68,71,74,77,80,83,86,89,92,95,98,101,104,107-pentatriacontaoxa-2-azanonahectan-109-ol]
EC50 (human TLR7 [1]; [5]): 3.81 µM

CCC[C@@H](CCO)Nc1nc(N)nc(C)c1Cc1ccc(CNC)cc1OC [compound 11, (3S)-3-{[2-amino-5-({2-methoxy-4-[(methylamino)methyl]phenyl}methyl)-6-methylpyrimidin-4-yl]amino}hexan-1-ol, reference compound]
EC50 (mouse TLR7): 0.002 µM | EC50 (human TLR7 [1]; [4]): 0.008 µM
